Patent US11293023B2, “Tunable endogenous protein degradation” (Dana-Farber Cancer Institute, Inc., priority 2015, dated 2022)
“Also recorded” adds a separate entry of the source.

Columns and labels:
[1] = target: T1, FKBP* (FKBP12 F36V), HA-tagged (Homo sapiens, UniProt P62942, F37V); assay: Immunoblot of FKBP* degradation in 293FT cells (CRBN-WT or CRBN−/−); assay type: cell-based; conditions: for degradation of FKBP*: 100 nM
T1 construct: expressed in transfected cells; host or cells: 293FT cells (CRBN-WT or CRBN-/-)
Procedure: 293FT cells (CRBN-WT or CRBN−/−) expressing either HA-tagged FKBP12WT or FKBP* were treated with indicated concentrations of dFKBP7 for 4 hours.
Isogenic 293FT cells (CRBN-WT or CRBN−/−) expressing either FKBP12WT or FKBP* were treated with 100 nM of either dFKBP7 or dFKBP13 for 4 hours.
Isogenic 293FT cells (CRBN-WT or CRBN−/−) expressing HA-tagged FKBP* were treated with the indicated dose of dFKBP13 for 4 hours.
(§1) 293FT cells (CRBN-WT) expressing FKBP* were pretreated with 1 uM Carfilzomib (proteasome inhibitor), 0.5 uM MLN4924 (neddylation inhibitor), and 10 uM Lenalidomide (CRBN binding ligand) for two hours prior to a 4 hour treatment with dFKBP13.
The dTAG is predicated on the selectivity of FKBP* specific ligands over endogenous, wild type FKBP. In 293T cells expressing wild type FKBP12 or FKBP*, dFKBP7 induces targeted degradation only in FKBP* expressing cells. […] 293FT cells (CRBN-WT or CRBN−/−) expressing either HA-tagged FKBP12WT or FKBP* were treated with indicated concentrations of dFKBP7 for 4 hours.
In 293T cells expressing wild type FKBP12 or FKBP*, treatment with dFKBP7 and dFKBP13 induces targeted degradation only in FKBP* expressing cells. Isogenic 293FT cells (CRBN-WT or CRBN−/−) were engineered to expressed either FKBP12WT or FKBP*. Cells were treated with 100 nM of either dFKBP7 or dFKBP13 for 4 hours before lysates were prepared for western immunoblot analysis.
In an effort to define the optimal concentration of dFKB13 heterobifunctional compound to induce degradation of FKBP*, degradation was measured upon treatment with increasing concentrations of dFKBP13. Isogenic 293FT cells (CRBN-WT or CRBN−/−) were engineered to expressed HA-tagged FKBP*. Cells were treated with the indicated dose of dFKBP13 for 4 hours before lysates were prepared for western immunoblot analysis.
as §1, with “were engineered to express FKBP*. Cells” for “expressing FKBP*”, “dFKBP13. Lysates were prepared and western immunoblot analysis performed.” for “dFKBP13.”

FKBP*-KRASG12V = assay: Immunoblot of FKBP*-KRASG12V (dTAG-KRAS) degradation in NIH3T3 cells; assay type: cell-based; conditions: for degradation of FKBP*-KRASG12V: 24 hours
Procedure: FIG. 11 is an immunoblot of NIH3T3 cells expressing KRASG12V allele fused to FKBP* in the N-terminus or C-terminus. Cells were treated with 500 nM dFKBP7 for the indicated time. Cells were harvested and immunoblotted to measure degradation of FKBP*-KRASG12V and downstream surrogates of KRAS signaling (e.g. pMEK and pAKT).
(§2) FIG. 12 is an immunoblot of NIH3T3 cells expressing FKBP* fused to the N-terminus of KRASG12V treated with 1 uM of the indicated dFKBP heterobifunctional compounds for 24 hours. Cells were harvested and immunoblotted to measure degradation of FKBP*-KRASG12V and downstream surrogates of KRAS signaling (e.g. pMEK and pAKT).
as §2, with “FIG. 13” for “FIG. 12”, “with” for “with 1 uM of”, “indicated concentrations of dFKBP13” for “indicated dFKBP heterobifunctional compounds”
FIG. 14 is an immunoblot of NIH3T3 cells expressing FKBP* fused to the N-terminus of KRASG12V treated with 1 uM dFKBP13 for the indicated time. Cells were harvested and immunoblotted to measure degradation of FKBP*-KRASG12V and downstream surrogates of KRAS signaling (e.g. pMEK and pAKT).
FIG. 15 is an immunoblot of NIH3T3 cells expressing dTAG-KRASG12V pretreated with 1 uM Carfilzomib (proteasome inhibitor), 0.5 uM MLN4924 (neddylation inhibitor), and 10 uM Lenalidomide (CRBN binding ligand) for two hours prior to a 4 hour treatment with dFKBP13.
Cells were treated with 500 nM dFKBP7 for the indicated time. Cells were harvested and immunoblotted to measure degradation of FKBP*-KRAS and downstream surrogates of KRAS signaling (e.g. pMEK and pAKT).
In an effort to identify the best performing dFKBP molecule, dTAG-KRAS degradation was profiled across a series of dFKBP molecules. Western blotting of NIH3T3 cells expressing dTAG-KRASG12V were treated with 1 μM of the indicated dFKBP heterobifunctional compounds for 24 hours. Cells were harvested and immunoblotted to measure degradation of FKBP*-KRAS and downstream surrogates of KRAS signaling (e.g. pMEK and pAKT).
Western blotting of NIH3T3 cells expressing FKBP* fused to the N-terminus of KRAS treated with the indicated concentrations of dFKBP13 for 24 hours. Cells were harvested and immunoblotted to measure degradation of FKBP*-KRAS and downstream surrogates of KRAS signaling (e.g. pMEK and pAKT).
To evaluate the kinetic control of targeted degradation of dTAG-KRAS, dFKBP13 was administered by increased duration. Western blotting of NIH3T3 cells expressing FKBP* fused to the N-terminus of KRAS treated with 1 μM dFKBP13 for the indicated time. Cells were harvested and immunoblotted to measure degradation of FKBP*-KRAS and downstream surrogates of KRAS signaling (e.g. pMEK and pAKT).
NIH3T3 cells (CRBN-WT) were engineered to express dTAG-KRASG12V. Cells were pretreated with 1 uM Carfilzomib (proteasome inhibitor), 0.5 uM MLN4924 (neddylation inhibitor), and 10 uM Lenalidomide (CRBN binding ligand) for two hours prior to a 4 hour treatment with dFKBP13. Lysates were prepared and western immunoblot analysis performed. […] Pre-treatment with the NAE1 inhibitor MLN4924 rescued dTAG-KRASG12V expression establishing dependence on CRL activity, as expected for cullin-based ubiquitin ligases that require neddylation for processive E3 ligase activity. Pre-treatment with excess Lenalidomide abolished dFKBP13-dependent dTAG-KRASG12V degradation, confirming the requirement of CRBN engagement for degradation.

[2] = 293FT CRBN-WT or CRBN−/−, 4 hours

T1 sequence (P62942 2-108 F37V limits assumed): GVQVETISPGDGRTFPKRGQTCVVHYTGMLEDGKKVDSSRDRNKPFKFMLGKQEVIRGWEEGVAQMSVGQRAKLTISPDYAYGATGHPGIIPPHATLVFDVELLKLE

SMILES | degradation of FKBP* [1, 2] | degradation of HA-tagged FKBP* ([1]; 293FT CRBN-WT or CRBN−/−, indicated concentrations, 4 hours) | degradation of N-terminal dTAG-KRAS (FKBP*-KRASG12V) (FKBP*-KRASG12V; NIH3T3, 500 nM, indicated time) | dose dependence of degradation of HA-tagged FKBP* ([1]; 293FT CRBN-WT or CRBN−/−, indicated dose, 4 hours) | mechanism of FKBP* degradation ([1]; 293FT CRBN-WT, 4 hour treatment after inhibitor pretreatment) | degradation of FKBP*-KRASG12V (FKBP*-KRASG12V; NIH3T3, 1 uM) | time to degradation of FKBP*-KRASG12V (FKBP*-KRASG12V; NIH3T3, 1 uM, post treatment) [h] | degradation of FKBP*-KRASG12V (FKBP*-KRASG12V; NIH3T3, indicated concentrations) | mechanism of dTAG-KRASG12V degradation (FKBP*-KRASG12V; NIH3T3 CRBN-WT, 4 hour treatment after inhibitor pretreatment)
CC[C@H](C(=O)N1CCCC[C@H]1C(=O)O[C@H](CCc1ccc(OC)c(OC)c1)c1cccc(OCC(=O)NCCCOCCOCCOCCCNC(=O)COc2cccc3c2C(=O)N(C2CCC(=O)NC2=O)C3=O)c1)c1cc(OC)c(OC)c(OC)c1 (stereo partly shown) [dFKBP7] | CRBN-dependent degradation of FKBP* | CRBN-dependent degradation of FKBP* | potent degradation; also recorded: degraded |  |  |  |  |  | 
CC[C@H](C(=O)N1CCCC[C@H]1C(=O)O[C@H](CCc1ccc(OC)c(OC)c1)c1cccc(OCC(=O)NCCCCCCOc2cccc3c2C(=O)N(C2CCC(=O)NC2=O)C3=O)c1)c1cc(OC)c(OC)c(OC)c1 (stereo partly shown) [dFKBP13] | CRBN-dependent degradation of FKBP* |  |  | dose- and CRBN-dependent degradation | CRBN- and proteasome-dependent degradation | potent degradation | ≤ 1 | potent degradation | CRBN- and proteasome-dependent degradation
